Measurements taken from patent publication US10293148B2, “System, retainer and method of preventing and treating nosocomial infections including methicillin-resistant Staphylococcus aureus infections” (priority 2017, dated 2019).

System: S. epidermidis ATCC 12228
Test: ASTM E1153 sanitizer test on inoculated glass carriers
Assay type: cell-based, staphylococcus epidermidis
Method: As used herein, “CFU” refers to “colony forming unit;” the term “Log Reduction” means Log(B/A), where B=the colony form unit (CFU) number of viable test microorganisms on the control carriers after the contact time and A=the colony form unit (CFU) number of viable test microorganisms on the test carriers after the contact time. All log numbers are base-10 logarithms. […] The experiment was conducted pursuant to the American Society for Testing and Materials (ASTM) E1153, a quantitative test method designed to substantiate sanitizer claims for disinfectants on inanimate, non-porous, non-food contact surfaces. […] The commercial acne products were categorized based on their identified disinfecting ingredient. The representative test microorganism used to conduct the study was staphylococcus epidermidis (“S. epidermidis”). S. epidermidis is a gram-positive, cocci-shaped, facultative anaerobe, living mainly on the skin's surface and mucosa. S. epidermidis is one of the most common organisms contributing to nosocomial infections due to the increase in medical usage of biomaterials. Specifically, S. epidermidis infections are associated with intravascular devices (prosthetic heart valves, shunts, etc.), prosthetic joints, catheters, and postoperative wounds and the urinary tract. […] The ASTM […] protocol includes growing the test microorganism in a liquid culture medium. A series of hard, non-porous glass slides (“carriers”) are inoculated with the representative test microorganisms, and subsequently dried in an incubator. ASTM […] utilizes non-antimicrobial agents as controls to establish baselines for microbial reductions. For this study, each inoculation area was kept to a 10 mm circle to match the output tip of the […] light source. Once completely dried, the inoculated test carriers were treated with the test substances and incubated for the predetermined contact time. […] Each […] light source was set to the high power setting for testing. Control carriers were treated with a buffered saline solution and allowed to sit for the predetermined contact time. At the conclusion of the contact time, treated carriers were transferred to vessels containing neutralizing media. Dilutions of the neutralized test substance were assayed for microbial survivors using appropriate growth media. To determine microbial reduction, the effect of the test substance is compared to the effect of the control substance. […] The percent reduction is determined by evaluating the number of microorganisms on the control carriers after the contact time with the number of viable microorganisms on the test carriers after contact time.

[1] = stand-alone, no light, contact time 10 Seconds, Initial Numbers 1.4E+05
[2] = stand-alone, no light, contact time 20 Seconds, Initial Numbers 1.4E+05
[3] = stand-alone, no light, contact time 30 Seconds, Initial Numbers 1.4E+05
[4] = with Synederm Light (385-515 nm), contact time 10 Seconds, Numbers Control 2.97E+05, listed as 3.0% Hydrogen Peroxide
[5] = with Synederm Light (385-515 nm), contact time 30 Seconds, Numbers Control 2.97E+05, listed as 3.0% Hydrogen Peroxide
[6] = with Synederm Light (385-515 nm), contact time 60 Seconds, Numbers Control 2.97E+05, listed as 3.0% Hydrogen Peroxide
[7] = with Synederm Light (420-480 nm), contact time 10 Seconds, Numbers Control 2.97E+05, listed as 3.0% Hydrogen Peroxide
[8] = with Synederm Light (420-480 nm), contact time 30 Seconds, Numbers Control 2.97E+05, listed as 3.0% Hydrogen Peroxide
[9] = with Synederm Light (420-480 nm), contact time 60 Seconds, Numbers Control 2.97E+05, listed as 3.0% Hydrogen Peroxide
[10] = with Synederm Light (385-515 nm), contact time 10 Seconds, Numbers Control 2.97E+05
[11] = with Synederm Light (385-515 nm), contact time 30 Seconds, Numbers Control 2.97E+05
[12] = with Synederm Light (385-515 nm), contact time 60 Seconds, Numbers Control 2.97E+05
[13] = with Synederm Light (420-480 nm), contact time 10 Seconds, Numbers Control 2.97E+05
[14] = with Synederm Light (420-480 nm), contact time 30 Seconds, Numbers Control 2.97E+05
[15] = with Synederm Light (420-480 nm), contact time 60 Seconds, Numbers Control 2.97E+05

OO [3% Hydrogen Peroxide, hydrogen peroxide]
CFU/Carrier [1]: 7.50E+04 CFU/Carrier | Log10 Reduction Compared to Control [1]: 0.27 Log10 | Percent Reduction Compared to Control [1]: 46.4% | CFU/Carrier [2]: 8.00E+04 CFU/Carrier | Log10 Reduction Compared to Control [2]: 0.24 Log10 | Percent Reduction Compared to Control [2]: 42.9% | CFU/Carrier [3]: 6.30E+04 CFU/Carrier | Log10 Reduction Compared to Control [3]: 0.35 Log10 | Percent Reduction Compared to Control [3]: 55% | CFU/Carrier [4]: 5.80E+04 CFU/Carrier | Log10 Reduction Compared to Control [4]: 0.71 Log10 | Percent Reduction Compared to Control [4]: 80.4% | CFU/Carrier [5]: 1.34E+03 CFU/Carrier | Log10 Reduction Compared to Control [5]: 2.34 Log10 | Percent Reduction Compared to Control [5]: 99.5% | CFU/Carrier [6]: <1.00E+01 CFU/Carrier | Log10 Reduction Compared to Control [6]: >4.55 Log10 | Percent Reduction Compared to Control [6]: >99.997% | CFU/Carrier [7]: 2.19E+04 CFU/Carrier | Log10 Reduction Compared to Control [7]: 1.13 Log10 | Percent Reduction Compared to Control [7]: 92.6% | CFU/Carrier [8]: 6.20E+03 CFU/Carrier | Log10 Reduction Compared to Control [8]: 1.68 Log10 | Percent Reduction Compared to Control [8]: 97.9% | CFU/Carrier [9]: <1.00E+01 CFU/Carrier | Log10 Reduction Compared to Control [9]: >4.55 Log10 | Percent Reduction Compared to Control [9]: >99.997% | ASTM International passing criteria (3 Log10 or 99.9% reduction) (with Synederm light (385-515nm) for 60 seconds): satisfied the ASTM International passing criteria | ASTM International passing criteria (3 Log10 or 99.9% reduction) (with Synederm light (420-480nm) for 60 seconds): satisfied the ASTM International passing criteria

OO [0.3% Hydrogen Peroxide, hydrogen peroxide]
CFU/Carrier [1]: 8.3E+04 CFU/Carrier | Log10 Reduction Compared to Control [1]: 0.23 Log10 | Percent Reduction Compared to Control [1]: 40.7% | CFU/Carrier [2]: 7.50E+04 CFU/Carrier | Log10 Reduction Compared to Control [2]: 0.27 Log10 | Percent Reduction Compared to Control [2]: 46.4% | CFU/Carrier [3]: 1.20E+05 CFU/Carrier | Log10 Reduction Compared to Control [3]: 0.07 Log10 | Percent Reduction Compared to Control [3]: 14.3% | CFU/Carrier [10]: 7.58E+4 CFU/Carrier | Log10 Reduction Compared to Control [10]: 0.59 Log10 | Percent Reduction Compared to Control [10]: 74.4% | CFU/Carrier [11]: 3.66E+04 CFU/Carrier | Log10 Reduction Compared to Control [11]: 0.91 Log10 | Percent Reduction Compared to Control [11]: 87.7% | CFU/Carrier [12]: 9.10E+03 CFU/Carrier | Log10 Reduction Compared to Control [12]: 1.51 Log10 | Percent Reduction Compared to Control [12]: 96.9% | CFU/Carrier [13]: 1.30E+05 CFU/Carrier | Log10 Reduction Compared to Control [13]: 0.36 Log10 | Percent Reduction Compared to Control [13]: 56.2% | CFU/Carrier [14]: 1.30E+05 CFU/Carrier | Log10 Reduction Compared to Control [14]: 0.36 Log10 | Percent Reduction Compared to Control [14]: 56.3% | CFU/Carrier [15]: 2.28E+04 CFU/Carrier | Log10 Reduction Compared to Control [15]: 1.11 Log10 | Percent Reduction Compared to Control [15]: 92.3%
